According to patent publication EP0146113A2, “Active agent and therapeutical composition for the treatment of deincephalon failures of nervous deseases and skin diseases” (Aderhold, Dieter, priority 1983, dated 1985):

Experiments:
[1] = Storage stability (loss of activity on storage); type: physicochemical
Procedure: (§1) Die Erfahrungen mit α-, β- und 4 -MSH bzw. dem erwähnten Tetrapeptid zeigen, daß diese Substanzen ausserordentlich empfindlich und labil sind. […] Bei der Verbindung des Tetrapeptides mit einer Depotsubstanz sollte eine Wirkungsdauer von 12-15 Stunden angestrebt werden.
(§2) Während die Halbwertzeit des reinen Tetrapeptides ca. 1 Woche beträgt, trat bei dem hergestellten Depotpräparat ein geringerer Wirkungsverlust als 10% pro Woche auf. Im Körper hält der Depoteffekt zwischen 6 - 12h an. Als Tagesdosis von dem Depotpräparat empfiehlt sich eine Menge von etwa 1 ml, was etwa 200 Mikrogramm entspricht.
Für das Depotpräparat ist keine gekühlte Lagerung mehr erforderlich.

[2] = Duration of effect in the body; type: in vivo; conditions: without depot substance
Procedure: as §1, §2

Patienten [3] = test: Long-term trial, subcutaneous application over 2 - 15 months in a series of patients (MS therapy); type: in vivo
Source text: Das Tetrapeptid His-Phe-Arg-Trp wurde in einem Langzeitversuch über 2 - 15 Monate hinweg einer Reihe von Patienten subkutan appliziert. Dabei wurden folgende Ergebnisse erhalten: • Zwei Drittel der Patienten hatten ein subjektives - aber durchaus auch objektivierbares - Gefühl der Frische, höheren Lebensmut und größerer Leistungsfähigkeit.
Verschiedene Anhaltspunkte machten deutlich, daß es sich nicht um einen Cortisoneffekt handelte.
Wenn ein bis zwei Tage lang nicht oder mit Placebos behandelt wurde, trat bei allen Patienten eine objektive Verschlechterung in Richtung der bisherigen Beschwerden auf; auch subjektiv waren alle Patienten eindrucksvoll in der Lage, anhand der Wirkung Spritzen mit Substanz von Placebos zu unterscheiden. Die richtige Dosierung des erfindungsgemäßen Mittels ist kritisch. Uberdosierungen machten sich in Form von erhöhtem Blutdruck, Hitzegefühl, Kurzatmigkeit und bei kreislauflabilen Patienten in deren typischen Beschwerden bemerkbar. Die normale Tagesdosis des Tentrapeptides zur MS-Therapie wurde auf etwa […] festgesetzt, in Einzelfällen - solange es ohne die obengenannten Uberdosierungsphänomene vertragen wird - höher bzw. im Sinne einer Erhaltungsdosis oder bei kreislauflabilen Patienten auch niedriger.

menschlichen Auges = test: Eye drops, effect on vision; type: in vivo, Patienten
Source text: Diese Fähigkeit zeigte insbesondere das Tetrapeptid His-Phe-Arg-Trp.
Es wurden täglich ca. 2pg pro Auge des Tetrapeptides in physiologischer Kochsalzlösung in der Form von Augentropfen verabreicht. Dabei wurden die vorstehend erwähnten Erfolge erzielt.

[4] = Therapeutic use of melanotropin peptides, overall results (no method given); type: in vivo; conditions: general statement, treatment of diencephalon/hypophysis dysfunction, Multiple Sklerose
[5] = Comparative trials with peptides of six, four or two amino acids of the chain Met-Glu-His-Phe-Arg-Trp-Gly; type: in vivo
Procedure: Die Wirkung von etwa 0,3 mg <-MSH entsprach etwa der Wirkung von 0,1 mg dieses Tetrapeptides.

Patienten [6] = test: Subcutaneous injection of the chemically pure substances in a series of patients; type: in vivo; conditions: subkutan
Source text: Es wurden ferner die chemisch reinen Substanzen α -MSH und ß -MSH subkutan bei einer Reihe von Patienten gespritzt.

[7] = Augentropfen in physiologischer Kochsalzlösung, daily

Compound	Lagerfähigkeit ([1]; als Reinsubstanz tiefgekühlt)	Loss of Wirksamkeit ([1]; in destilliertem Wasser gelöst, bei Kühlschranktemperatur aufbewahrt)	Halbwertzeit ([1]; pure tetrapeptide, storage)	Loss of effect im Körper [2]	Tolerability together with Cortison (Patienten [3]; in vivo)	Krankheitsbild (course) (Patienten [3]; subkutan, 2 - 15 Monate)	Reports of individual patients (Patienten [3]; subkutan, 2 - 15 Monate)	Share of patients with Gefühl der Frische, höheren Lebensmut und größerer Leistungsfähigkeit (Patienten [3]; subkutan, 2 - 15 Monate)	Spastik (Patienten [3]; subkutan, 2 - 15 Monate)	Absetzen von Cortison (Patienten [3]; withdrawal of Cortison under the tetrapeptide)	Fähigkeit des Patienten in bezug auf die Zusammensetzung von bewegten Bildern (menschlichen Auges; [7])	Wahrnehmung von Lichtreizen (menschlichen Auges; [7])	Sehfähigkeit des menschlichen Auges (menschlichen Auges; in vivo)	Ergebnisse [4]	Equally effective amount (Wirkung entsprach) ([5]; amounts of the two substances with about the same effect)	Positivwirkung und Negativwirkung ([5]; comparison among peptides of the seven-residue chain)	Wirkung (comparison between the substances) (Patienten [6]; patients)	kurzzeitiger Besserungseffekt (Kräftigung, Frischegefühl) (Patienten [6]; time to onset, at first application possibly only after one to two days)
N=C(N)NCCC[C@H](NC(=O)[C@H](Cc1ccccc1)NC(=O)[C@@H](N)Cc1cnc[nH]1)C(=O)N[C@@H](Cc1c[nH]c2ccccc12)C(=O)O [Tetrapeptid His-Phe-Arg-Trp, His-Phe-Arg-Trp]	lagerfähig	etwa die Hälfte	ca. 1 Woche	innerhalb kurzer Zeit	gut nebeneinander vertragen	keine Verschlechterungen des Krankheitsbildes auf, sondern einige nachweisbare Verbesserungen	Normalisierung des (bisher zu niedrigen) Blutdrucks, bessere Durchblutung und Beweglichkeit der Extremitäten, Wiederherstellung des Tag-Nacht-Rhythmus (keine Schlafstörungen mehr), bessere Sehfähigkeit, Normalisierung des Zyklus, Minderung von Gleichgewichtsstörungen	Zwei Drittel	starkes Nachlasen der Spastik	wesentlich erleichtert und ohne Rückschläge oder Komplikationen beschleunigt	wesentlich verbessert	stabilisiert	Verbesserung der Sehfähigkeit	besten Ergebnisse	~0,1 mg	stärksten Positivwirkung und der schwächsten Negativwirkung	im wesentlichen die gleiche Wirkung wie α -MSH und β-MSH	
β -Melanotropin [ß -MSH]																		innerhalb der ersten Stunde
